Measurements taken from patent publication US20120015923A1, “USE OF ANDROGRAPHOLIDE COMPOUNDS FOR TREATING INFLAMMATION AND AIRWAY DISORDERS” (NATIONAL UNIVERSITY OF SINGAPORE, priority 2009, published 2012).

System: inflammatory gene expression in lung tissues
Assay: Pulmonary mRNA expression of inflammatory markers (RT-PCR)
Assay type: in vivo, BALB/c mice
Conditions: lungs 24 hours after last OVA aerosol
Procedure: Lungs were isolated from the thoracic cavity 24 hours after the last OVA or saline challenge, and stored in RNAlater. The samples were first incubated at […] overnight for the RNAlater to permeate into the lung tissues to stabilize the RNA. The samples were then stored at −80° C. Before RNA isolation, lung tissues were thawed at […] They were then removed from the RNAlater and immersed in 1 ml Trizol solution. Then, homogenization was performed using a homogenizer (SilentCrusher M, Heidolph Elektro GmbH & Co., Kelheim, Genman). All samples were placed on ice to prevent RNA degradation. The homogenates were then centrifuged at 12,000 g for 10 min at 4° C. The clear RNA containing supernatant was then decanted, incubated for 5 min in room temperature, and 0.2 ml of chloroform was added. All tubes were shaken vigorously for 15 seconds and incubated at room temperature for 3 minutes before being centrifuged at 12,000 g for 15 min at 4° C. About 500 μl of the colourless upper aqueous layer containing RNA, was decanted. 0.5 ml of isopropanol was added and mixed for 30 sec, before being incubated at room temperature for 10 minutes. The tubes were then centrifuged at 12000 rpm for 15 min at 4° C. The supernatant was discarded and 1 ml of 75% ethanol was added to the RNA pellet. Centrifugation at 8500 rpm for 5 minutes at 4° C. was then performed to wash the pellet. The supernatant was again discarded and the washed RNA pellet was air-dried at room temperature for 10 min. The dried RNA pellet was dissolved in 100 μl of ribonuclease-free DEPC water and incubated at 55° C. for 10 minutes. The amount and purity of RNA present in the sample was quantified using the spectrophotometer (NanoDrop ND-1000 from Thermo Risher
Reverse transcription was performed to synthesize single-stranded complementary DNA (cDNA) templates from the RNA extracted. Volume containing 1 μg total RNA was calculated based on the nucleic acid concentration measured from the spectrophotometer, and was topped up to 20 μl with DEPC water. 10.58 μl of master mix was then added to each sample. Then, cDNA was synthesized from 1 μg of RNA using a multiwall thermal cycler (GeneAmp PCR system 2700 from Applied Biosystems, Foster City, Calif., USA) by bringing the reaction volume to 95° C. for 10 minutes and 42° C. for 30 minutes.
PCR amplifications were then performed using the multiwell thermal cycler on 1 μl cDNA template in a 25 μl reaction volume. The reaction volume contained 10.5 μl nuclease-free water, 0.5 μl forward primer (10 μM), 0.5 μl reverse primer (10 μM) and 12.5 μl 2×PCR master mix (50 units/ml TaqDNA polymerase, 400 μM dATP, 400 μM dGTP, 400 μM dCTP, 400 μM dTTP and 3 mM MgCl2).

SMILES: C=C1CC[C@@H]2[C@](C)(CO)[C@H](O)CC[C@@]2(C)[C@@H]1C/C=C1/C(=O)OC[C@H]1O [Andrographolide]
- ICAM-1 gene expression in lung: inhibition
- VCAM-1 gene expression in lung: inhibition
- YM1 gene expression in lung: inhibition
- inducible nitric oxide synthase mRNA expression in lung tissues: attenuated
- AMCase mRNA expression in lung tissues (DDAG 1 mg/kg): markedly down-regulated
- E-selectin mRNA expression in lung tissues (DDAG 1 mg/kg): attenuated
- Muc5ac mRNA expression in lung tissues (DDAG 1 mg/kg): attenuated
- YKL-40 mRNA expression in lung tissues (DDAG 1 mg/kg): markedly down-regulated
- Ym2 mRNA expression in lung tissues (DDAG 1 mg/kg): markedly down-regulated

SMILES: C=C1CCC2C(C)(CO)C(O)CCC2(C)C1C=CC1=CCOC1=O (centres unmarked) [DDAG, 14-Deoxy-11,12-didehydroandrographolide]
- AMCase mRNA expression in lung tissues (DDAG 1 mg/kg): strong suppression
- COX2 mRNA expression in lung tissues (DDAG 1 mg/kg): strong suppression
- E-selectin mRNA expression in lung tissues (DDAG 1 mg/kg): strong suppression
- IL-17 mRNA expression in lung tissues (DDAG 1 mg/kg): strong suppression
- IL-33 mRNA expression in lung tissues (DDAG 1 mg/kg): strong suppression
- Muc5ac mRNA expression in lung tissues (DDAG 1 mg/kg): strong suppression
- YKL-40 mRNA expression in lung tissues (DDAG 1 mg/kg): strong suppression
- Ym2 mRNA expression in lung tissues (DDAG 1 mg/kg): strong suppression
